Consider one molecule from patent US9345258B2, “Synergistic phytochemical composition and a process for preparation thereof” (priority 2011, dated 2016).

The test system of the assay is primary OA. The assay is described as follows: Randomized, single blind, placebo-controlled trial in painful osteoarthritis. The assay is classed as in vivo, patients. The settings on record: 42 days treatment. On the procedure:
The present trial was earned out to evaluate the effectiveness of the composition of the invention in the treatment of painful OA [a randomized, single blind, placebo-controlled trial]. 120 patients (37 males and 83 females) with primary OA received either the composition of the invention (500 mg twice daily) or Glucosamine sulphate (750 mg twice daily) or placebo (500 mg twice daily) or combination of the composition of the invention and Glucosamine sulphate for 42 days. During the treatment period two follow up visits on day 21st and day 42nd, efficacy was evaluated in terms of change in the intensity/severity of symptoms (as measured by VAS, WOMAC scale) and examination by orthopaedician (as measured by CGIC).

Each structure is given as a SMILES string.

On to `N[C@H]1C(O)O[C@H](CO)[C@@H](O)[C@@H]1O.O=S(=O)(O)O` (stereo partly shown) [Glucosamine sulphate], for which the “signs and symptoms of OA” value is listed as “Overall improvement”.
